In one assay the target is T1, human PAC1 receptor (Homo sapiens, UniProt P41586).
T1 construct: SHSY-5Y (human neuroblastoma cell line) and RG-2 (rat glioma cell line) cells endogenously express human and rat PAC1 receptors, respectively; endogenous in cells; host or cells: SHSY-5Y human neuroblastoma cells
T1 sequence (P41586 21-468): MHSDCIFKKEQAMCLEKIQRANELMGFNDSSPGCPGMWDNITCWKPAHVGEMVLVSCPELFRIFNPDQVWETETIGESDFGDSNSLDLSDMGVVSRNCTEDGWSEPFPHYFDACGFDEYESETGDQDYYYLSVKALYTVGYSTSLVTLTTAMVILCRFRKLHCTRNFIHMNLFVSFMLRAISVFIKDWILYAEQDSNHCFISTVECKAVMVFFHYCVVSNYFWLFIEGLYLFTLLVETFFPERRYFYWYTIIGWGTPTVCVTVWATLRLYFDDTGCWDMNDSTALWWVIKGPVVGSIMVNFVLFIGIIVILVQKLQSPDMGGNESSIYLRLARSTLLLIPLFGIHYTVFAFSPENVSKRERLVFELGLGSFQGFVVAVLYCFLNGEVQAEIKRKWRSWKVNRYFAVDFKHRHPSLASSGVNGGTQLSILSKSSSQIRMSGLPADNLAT
As to the kind of experiment: LANCE Ultra cAMP accumulation antagonist assay in SHSY-5Y cells.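 Further: inhibition of cAMP accumulation evoked by PAC1 agonist at its EC80 in SHSY-5Y cells endogenously expressing receptor, 30 min preincubation then 15 min agonist, TR-FRET readout.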 Type of assay: cell-based.

The next assay deals with T2, rat PAC1 receptor (Rattus norvegicus, UniProt P32215).
T2 construct: SHSY-5Y (human neuroblastoma cell line) and RG-2 (rat glioma cell line) cells endogenously express human and rat PAC1 receptors, respectively; endogenous in cells; host or cells: RG-2 rat glioma cells
T2 sequence (P32215 20-523): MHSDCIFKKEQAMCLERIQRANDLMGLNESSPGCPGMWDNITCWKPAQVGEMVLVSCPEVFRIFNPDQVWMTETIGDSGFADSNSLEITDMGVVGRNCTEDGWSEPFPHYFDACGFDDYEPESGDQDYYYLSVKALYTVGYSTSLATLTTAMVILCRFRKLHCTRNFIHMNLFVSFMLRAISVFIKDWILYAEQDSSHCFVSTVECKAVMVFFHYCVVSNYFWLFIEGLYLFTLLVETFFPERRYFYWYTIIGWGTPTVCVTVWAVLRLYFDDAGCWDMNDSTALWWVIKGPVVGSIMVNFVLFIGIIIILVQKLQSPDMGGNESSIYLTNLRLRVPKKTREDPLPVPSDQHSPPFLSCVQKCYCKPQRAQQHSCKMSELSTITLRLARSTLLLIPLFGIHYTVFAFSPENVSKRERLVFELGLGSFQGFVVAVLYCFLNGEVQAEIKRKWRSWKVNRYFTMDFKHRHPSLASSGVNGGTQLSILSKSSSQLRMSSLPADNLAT
As to the kind of experiment: LANCE Ultra cAMP accumulation antagonist assay in RG-2 cells.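 Further: RG-2 rat glioma cells endogenously expressing PAC1, test peptide preincubated 30 min, then PAC1 agonist added at its EC80 for 15 min, cAMP accumulation read by LANCE Ultra.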 The assay is classed as cell-based. A general note: In TR-FRET formats the signal depends on donor and acceptor labels being close together.

Where a SMILES comes first, the peptide text is derived from it. Bridges are numbered along the chain shown (N, C = ends). Where no end group is shown, it is not given here. [ ]: non-standard residue; d: D form. SeMet = C[Se]CC[C@H](N)C(=O)O

One may read the IC50 as the midpoint of a concentration-inhibition curve. Higher therefore signals a need for much substance.

Method for rat PAC1 receptor: In order to determine the potency of peptide antagonists at the PAC1 receptor, functional cAMP accumulation assays using LANCE Ultra cAMP assay kit to measure the agonist and antagonist activity of PAC1 peptides were used. SHSY-5Y (human neuroblastoma cell line) and RG-2 (rat glioma cell line) cells endogenously express human and rat PAC1 receptors, respectively. Agonist activity of PAC1 peptides was tested by incubating with SHSY-5Y at 2,000 cells per well or RG-2 at 5,000 cells per well for 15 minutes at room temperature. PAC1 receptor agonist PACAP38 or maxadilan was included as a positive control. The reaction was stopped by adding detection mixture, europium (Eu) chelate-labeled cAMP tracer and cAMP-specific monoclonal antibodies labeled with the ULight™ dye, to all wells followed by a 60-minute incubation at room temperature. The assay plates were then read on an EnVision instrument at an emission wavelength of 665 and 615 nm and data were analyzed using Genedata Screener or GraphPad Prism software. A similar procedure was used in the antagonist assays by using a fixed concentration of PAC1 agonist. The concentrations of agonists were chosen based on their ECK) values at PAC1 receptors in SHSY-5Y or RG-2 cells. SHSY-5Y or RG-2 cells were added into 96-well half-area white plates. Serially diluted PAC1 peptides at ten concentrations were added and incubated for 30 minutes at room temperature. PAC1 agonist at EC80 concentration was then added and further incubated for 15 minutes at room temperature. The reaction was stopped by adding detection mixture to all wells followed by a 60-minute incubation at room temperature. The assay plates were read and analyzed the same way as that of agonist assay. Cells, agonists, and PAC1 peptides were prepared in freshly made assay buffer (F-12, 0.5 mM IBMX, 0.1 or 0.4% BSA (pH 7.4)). Detection mixture was made by mixing a 1/50 dilution of the Eu-cAMP tracer stock solution in cAMP Detection Buffer and a 1/150 dilution of the ULight-anti-cAMP stock solution in cAMP Detection Buffer. Europium (Eu) chelate-labeled cAMP tracer, cAMP-specific monoclonal antibodies labeled with the ULight™ dye, BSA, and detection buffer were provided in LANCE Ultra cAMP Kit from PerkinElmer

Take `CC[C@H](C)[C@H](NC(=O)[C@H](C)NC(=O)[C@H](CCCCN)NC(=O)[C@H](CCCNC(=N)N)NC(=O)[C@H](Cc1ccccc1)NC(=O)[C@H](CCC(N)=O)NC(=O)[C@@H]1CSSC[C@H](NC(=O)CN)C(=O)N[C@@H](CC(=O)O)C(=O)N[C@@H](C)C(=O)N[C@@H]([C@@H](C)O)C(=O)N1)C(=O)N[C@@H](CC(=O)O)C(=O)N[C@@H](CC(=O)O)C(=O)N[C@H]1CSSC[C@@H](C(=O)N[C@@H](CCSC)C(=O)N[C@@H](CCCCN)C(=O)N[C@@H](CCC(N)=O)C(=O)N[C@@H](CCCCN)C(=O)N[C@@H](CCCCN)C(=O)N[C@@H](CCCCN)C(=O)N[C@@H](CCC(=O)O)C(=O)N[C@@H](Cc2c[nH]c3ccccc23)C(=O)N[C@@H](CCCCN)C(=O)N[C@@H](C)C(=O)NCC(=O)N[C@@H](Cc2c[nH]cn2)C(=O)O)NC(=O)[C@H](C)NC(=O)[C@H](CCCCN)NC(=O)[C@H](Cc2ccccc2)NC(=O)[C@H](C(C)C)NC(=O)[C@H](CO)NC(=O)[C@H](CO)NC(=O)[C@H](Cc2c[nH]cn2)NC(=O)[C@H](Cc2c[nH]cn2)NC(=O)[C@H](C)NC(=O)[C@H](CCC(N)=O)NC(=O)[C@H](CCCNC(=N)N)NC(=O)[C@H](C(C)C)NC1=O` [compound 15] (H-GCDATCQFRKAIDDCVRQAHHSSVFKACMKQKKKEWKAGH-OH; disulfide 2-6, 15-28): the IC50 against human PAC1 receptor and against rat PAC1 receptor was 0.01 to 1 nM in each case.
For the compound `CC[C@H](C)[C@H](NC(=O)[C@H](C)NC(=O)[C@H](CCCCN)NC(=O)[C@H](CCCNC(=N)N)NC(=O)[C@H](Cc1ccccc1)NC(=O)[C@H](CCC(N)=O)NC(=O)[C@@H]1CSSC[C@H](N)C(=O)N[C@@H](CC(=O)O)C(=O)N[C@@H](C)C(=O)N[C@@H]([C@@H](C)O)C(=O)N1)C(=O)N[C@@H](CC(=O)O)C(=O)N[C@@H](CC(=O)O)C(=O)N[C@H]1CSSC[C@@H](C(=O)N[C@@H](CC[Se]C)C(=O)N[C@@H](CCCCN)C(=O)N[C@@H](CCC(N)=O)C(=O)N[C@@H](CCCCN)C(=O)N[C@@H](CCCCN)C(=O)N[C@@H](CCCCN)C(=O)N[C@@H](CCC(=O)O)C(=O)N[C@@H](Cc2c[nH]c3ccccc23)C(=O)N[C@@H](CCCCN)C(=O)N[C@@H](C)C(=O)NCC(N)=O)NC(=O)[C@H](C)NC(=O)[C@H](CCCCN)NC(=O)[C@H](Cc2ccccc2)NC(=O)[C@H](C(C)C)NC(=O)[C@H](CO)NC(=O)[C@H](CO)NC(=O)[C@H](Cc2c[nH]cn2)NC(=O)[C@H](Cc2ccc(O)cc2)NC(=O)[C@H](C)NC(=O)[C@H](CCC(N)=O)NC(=O)[C@H](CCCNC(=N)N)NC(=O)[C@H](C)NC1=O` [compound 6] (H-CDATCQFRKAIDDCARQAYHSSVFKAC[SeMet]KQKKKEWKAG-NH2; disulfide 1-5, 14-27), the IC50 against human PAC1 receptor and against rat PAC1 receptor was 0.01 to 1 nM each time.
Regarding “CDATCQFRKAIDDCQKQAHHSNVPGSVFKACLKQKKKEFKAG-NH2 (disulfide 1-5, 14-31) [compound 143]”, the IC50 on human PAC1 receptor and at rat PAC1 receptor was 0.01 to 1 nM each time.
Take “CDATCQFRKAIDDCARQAHHSNVPGSVFKACMKQKKKEYKAGH (disulfide 1-5, 14-31) [compound 10]”: the IC50 against human PAC1 receptor and at rat PAC1 receptor was 0.01 to 1 nM throughout.
Consider “CDATCQFRKAIDDCAKQAHHSNVPGSVFKACIKQKKKEFKAG-NH2 (disulfide 1-5, 14-31) [compound 14]”, for which the IC50 at human PAC1 receptor and against rat PAC1 receptor was 0.01 to 1 nM each time.
Regarding “CDATCQFRKAIDDCARQAHHSNVPGSVFKSCMKQKKKEWKAGH (disulfide 1-5, 14-31) [compound 24]”, the IC50 on human PAC1 receptor and against rat PAC1 receptor was 0.01 to 1 nM each time.
For “CDATCQFRKAIDDCYYRSWHSNVPGSVFKACMKQKKKEFKAG (disulfide 1-5, 14-31) [compound 64]”, the results for the IC50 against human PAC1 receptor and against rat PAC1 receptor were 1 to 100 nM and 0.01 to 1 nM, respectively.
In the case of “CDATCQFRKAIDDCSWFAIHSNVPGSVFKACMKQKKKEFKAG-NH2 (disulfide 1-5, 14-31) [compound 115]”, the IC50 against human PAC1 receptor and on rat PAC1 receptor was 0.01 to 1 nM throughout.
“CDATCQFRKAIDDCQKQAHHSNVPGSVFKACMKQKKKEFKAH (disulfide 1-5, 14-31) [compound 153]”: the IC50 at human PAC1 receptor fell in the range of 1 to 100 nM; on rat PAC1 receptor, 0.01 to 1 nM.
Consider “CDATCQFRKAIDDCDRQAHHSNVPGSVFKACMKQKKKEWKANN (disulfide 1-5, 14-31) [compound 154]”, for which the IC50 against human PAC1 receptor and against rat PAC1 receptor was 0.01 to 1 nM each time.
On to “CDATCQFRKAIDDCFYQAWHSNVPGSVWKACMKFRFNVWKAG-NH2 (disulfide 1-5, 14-31) [compound 55]”, for which the IC50 against human PAC1 receptor fell in the range of 1 to 100 nM; against rat PAC1 receptor it was 0.01 to 1 nM.
Take “CDATCQFRKAIDDCARQAHHSQVPGSVFKACMKQKKKEWKAGH (disulfide 1-5, 14-31) [compound 22]”: the concentration for half-maximal inhibition (IC50) against human PAC1 receptor and against rat PAC1 receptor was 0.01 to 1 nM each time.
Turning to “CDATCQFRKAIDDCVKQAHHSNVPGSVFKACMKQKKKEFKAGH (disulfide 1-5, 14-31) [SEQ ID NO 94]”, the IC50 against human PAC1 receptor and against rat PAC1 receptor was 0.01 to 1 nM throughout.
As to “CDATCQFRKAIDDCDRQAHHSNVPGSVFKACMKQKKKEWKAGH (disulfide 1-5, 14-31) [compound 167]”, the IC50 against human PAC1 receptor and against rat PAC1 receptor was 0.01 to 1 nM in each case.
Regarding “CDATCQFRKAIDDCYYRAWHSNVPGSVFKACMKQKKKEFKAG-NH2 (disulfide 1-5, 14-31) [compound 104]”, the concentration for half-maximal inhibition (IC50) on human PAC1 receptor and against rat PAC1 receptor was 0.01 to 1 nM throughout.
Turning to “CDATCQFRKAIDDCVWYSMHSNVPGSVFKACMKQKKKEFKAG-NH2 (disulfide 1-5, 14-31) [compound 133]”, the IC50 against human PAC1 receptor and against rat PAC1 receptor was 0.01 to 1 nM in each case.
For the compound “CDATCQFRKAIDDCDRQAHHSNVPGSVFKACMKQKKKEFKAG-NH2 (disulfide 1-5, 14-31) [compound 168]”, the IC50 at human PAC1 receptor and against rat PAC1 receptor was 0.01 to 1 nM each time.
Consider “CDATCQFRKAIDDCHLLAWHSNVPGSVFKACMKQKKKEFKAG-NH2 (disulfide 1-5, 14-31) [compound 76]”, for which the IC50 at human PAC1 receptor and at rat PAC1 receptor was 0.01 to 1 nM in each case.
Regarding “CDATCQFRKAIDDCWVQAWHSNVPGSVFKACMKQKKKEFKAG-NH2 (disulfide 1-5, 14-31) [compound 134]”, the IC50 at human PAC1 receptor and against rat PAC1 receptor was 0.01 to 1 nM each time.
In the case of “CDATCQFRKAIDDCQKQAHHSNVPGSVFKACMKQKKKEFKAGW (disulfide 1-5, 14-31) [compound 145]”, the IC50 at human PAC1 receptor and against rat PAC1 receptor was 0.01 to 1 nM in each case.
With “CDATCQFRKAIDDCFYQAWHSNVPGSVWKACMKQKKKEFKAG-NH2 (disulfide 1-5, 14-31) [compound 139]”, the IC50 against human PAC1 receptor and at rat PAC1 receptor was 0.01 to 1 nM in each case.
On to “CDATCQFRKAIDDCLWWSQHSNVPGSVFKACMKQKKKEFKAG-NH2 (disulfide 1-5, 14-31) [compound 117]”, for which the IC50 against human PAC1 receptor and on rat PAC1 receptor was 0.01 to 1 nM throughout.
With “CDATCQFRKAIDDCAKQAHHSNVPGSVFKSCMKQKKKEFKAG-NH2 (disulfide 1-5, 14-31) [compound 31]”, the IC50 was 0.01 to 1 nM on human PAC1 receptor and < 0.01 nM against rat PAC1 receptor.
Taken in the same sequence, the figures for “CDATCQFRKAIDDCVYSAWHSNVPGSVFKACMKQKKKEFKAG-NH2 (disulfide 1-5, 14-31) [compound 83]” were 0.01 to 1 nM and 0.01 to 1 nM.
On to “CDATCQFRKAIDDCVRQAHHSNVPGSVFKACMKQKKKEWKAN (disulfide 1-5, 14-31) [compound 87]”, for which the IC50 on human PAC1 receptor and on rat PAC1 receptor was 0.01 to 1 nM each time.
As to “CDATCQFRKAIDDCYYRSHHSNVPGSVFKACMKQKKKEFKAG-NH2 (disulfide 1-5, 14-31) [compound 45]”, the IC50 at human PAC1 receptor and at rat PAC1 receptor was 0.01 to 1 nM in each case.
On to “GCDATCQFRKAIDDCAKQAHHSNVPGSVFKACMKQKKKEFKAGY (disulfide 2-6, 15-32) [SEQ ID NO 58]”, for which the IC50 against human PAC1 receptor and at rat PAC1 receptor was 0.01 to 1 nM each time.
For the compound “CDATCQFRKAIDDCWIVAWHANVPGSVFKACMKQKKKEFKAG-NH2 (disulfide 1-5, 14-31) [compound 129]”, the IC50 against human PAC1 receptor and against rat PAC1 receptor was 0.01 to 1 nM throughout.

The values are drawn from US20210395313A1, “PEPTIDE PAC1 ANTAGONISTS” (AMGEN INC., priority 2017, published 2021).
